Results: the supplement of paper PMC11208160

assay: recombinant UMI read abundance after kanamycin selection (control-corrected) (log10(CPM+1)); higher = more efficient recombination; extreme values may be limits of the assay; sequences stand for … in AGTGCAGAGAAAATCGGCCAGTTTTCTCTGCCTGCAGTCCGCATGCCGTGGGACCCCTTGGGTTCTAACCTGTTGCCTAGATTTATGCAGCGGACTGCCTTTCTCCCAAAGTGATAAACCGG…AGGTTGGTTTCACT; site = the 11-nt donor
Summary of the method: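 Sequenced counts of recombinant UMIs were turned into CPM, averaged across replicates and scaled with control-derived factors. The reported figure is log10(CPM+1). Those UMIs, each 12 nt long, tagged donor and donor-binding-loop pairs on a plasmid with a promoterless kanamycin gene, screened as a pool in Escherichia coli with IPTG (0.07 mM) plus kanamycin or without selection.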
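Note: IS621 bridge recombinase in Escherichia coli cells against a fixed T5 target plasmid.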

Sequence	recombinant UMI read abundance (log10)
GGCAATCCATGGACCGGTTTTCCCGGTAATCCGTATTTGAA (site TGCAATCCTTT)	0.0119
GGCACTCCATGGACCGGTTTTCCCGGTAATCCGTATTTGAA (site GGCAATCCTTT)	0
GGCACTCCATGGACCGGTTTTCCCGGTAATCCGTATTTGAA (site GGCACTCCTTT)	0.248
GGCACTCCATGGACCGGTTTTCCCGGTAATCCGTATTTGAA (site GGCAGTCCTTT)	0.00862
GGCACTCCATGGACCGGTTTTCCCGGTAATCCGTATTTGAA (site GGCATTCCTTT)	0.00807
GGCAGGCCATGGACCGGTTTTCCCGGTAATCCGTATTTGCT (site GGCAGGCCTAG)	0.861
GGCATGACATGGACCGGTTTTCCCGGTAATCCGTATTTGCC (site GGCATGACTGG)	0
GGCCACACATGGACCGGTTTTCCCGGTAATCCGTATTTGTT (site GGCCACACTAA)	0.485
GGCCACACATGGACCGGTTTTCCCGGTAATCCGTATTTGTT (site GGCCACCCTAA)	0.035
GGCCACACATGGACCGGTTTTCCCGGTAATCCGTATTTGTT (site GGCCACGCTAA)	0.0159
GGCCACACATGGACCGGTTTTCCCGGTAATCCGTATTTGTT (site GGCCACTCTAA)	0.00795
GGCCACCCATGGACCGGTTTTCCCGGTAATCCGTATTTGAT (site GGCCACCCTAA)	0.0182
GGCCACCCATGGACCGGTTTTCCCGGTAATCCGTATTTGAT (site GGCCACCCTAC)	0.00622
GGCCACCCATGGACCGGTTTTCCCGGTAATCCGTATTTGAT (site GGCCACCCTAG)	0
GGCCACCCATGGACCGGTTTTCCCGGTAATCCGTATTTGAT (site GGCCACCCTAT)	0
GGCCAGCCATGGACCGGTTTTCCCGGTAATCCGTATTTGTA (site GGCCAGCCTTA)	0.0264
GGCCGATCATGGACCGGTTTTCCCGGTAATCCGTATTTGCG (site GGCCGATCTCG)	1.88
GGCCGATCATGGACCGGTTTTCCCGGTAATCCGTATTTGTC (site GGCCGATCTGA)	0.695
GGCCGTGCATGGACCGGTTTTCCCGGTAATCCGTATTTGCC (site GGCCGTGCTGG)	1.16
GGCCTCCCATGGACCGGTTTTCCCGGTAATCCGTATTTGTT (site GGCCACCCTAA)	0.0137
GGCCTCCCATGGACCGGTTTTCCCGGTAATCCGTATTTGTT (site GGCCCCCCTAA)	0
GGCCTCCCATGGACCGGTTTTCCCGGTAATCCGTATTTGTT (site GGCCGCCCTAA)	0.0206
GGCCTCCCATGGACCGGTTTTCCCGGTAATCCGTATTTGTT (site GGCCTCCCTAA)	0.00625
GGCGAACCATGGACCGGTTTTCCCGGTAATCCGTATTTGAC (site GGCGAACCTGT)	0
GGCGAACCATGGACCGGTTTTCCCGGTAATCCGTATTTGGG (site GGCGAACCTCC)	0

Sequence	recombinant UMI read abundance (log10)
GGCGACCCATGGACCGGTTTTCCCGGTAATCCGTATTTGTT (site GGCAACCCTAA)	0
GGCGACCCATGGACCGGTTTTCCCGGTAATCCGTATTTGTT (site GGCCACCCTAA)	0.0153
GGCGACCCATGGACCGGTTTTCCCGGTAATCCGTATTTGTT (site GGCGACCCTAA)	0.263
GGCGACCCATGGACCGGTTTTCCCGGTAATCCGTATTTGTT (site GGCTACCCTAA)	0.0186
GGCGAGGCATGGACCGGTTTTCCCGGTAATCCGTATTTGTC (site GGCGAGGCTGA)	2.23
GGCGATACATGGACCGGTTTTCCCGGTAATCCGTATTTGTT (site GGCGATACTAA)	1.81
GGCGCACCATGGACCGGTTTTCCCGGTAATCCGTATTTGCA (site GGAGCACCTTG)	0
GGCGCACCATGGACCGGTTTTCCCGGTAATCCGTATTTGCA (site GGCGCACCTTG)	0
GGCGCACCATGGACCGGTTTTCCCGGTAATCCGTATTTGCA (site GGGGCACCTTG)	0
GGCGCACCATGGACCGGTTTTCCCGGTAATCCGTATTTGCA (site GGTGCACCTTG)	0.00254
GGCGCAGCATGGACCGGTTTTCCCGGTAATCCGTATTTGTT (site GGCGCAGCTAA)	0.794
GGCTAATCATGGACCGGTTTTCCCGGTAATCCGTATTTGAT (site GGCTAATCTAT)	0.935
GGCTACTCATGGACCGGTTTTCCCGGTAATCCGTATTTGCT (site GGCTACTCTAG)	2.43
GGCTCTACATGGACCGGTTTTCCCGGTAATCCGTATTTGGT (site GGCTCTACTAC)	0
GGCTTGGCATGGACCGGTTTTCCCGGTAATCCGTATTTGGT (site GGCTTGGCTAC)	0.216
GGGAATACATGGACCGGTTTTCCCGGTAATCCGTATTTGCA (site AGGAAGACTTG)	0
GGGAATACATGGACCGGTTTTCCCGGTAATCCGTATTTGCA (site GGGAATACTTG)	1.37
GGGAATACATGGACCGGTTTTCCCGGTAATCCGTATTTGTT (site CGGAATCCTAA)	0
GGGAATACATGGACCGGTTTTCCCGGTAATCCGTATTTGTT (site GGGAATACTAA)	1.29
GGGAATCCATGGACCGGTTTTCCCGGTAATCCGTATTTGAA (site GGAAATCCTTT)	0.0039
GGGAATCCATGGACCGGTTTTCCCGGTAATCCGTATTTGAA (site GGCAATCCTTT)	0.00362
GGGAATCCATGGACCGGTTTTCCCGGTAATCCGTATTTGAA (site GGGAATCCTTT)	0.808
GGGAATCCATGGACCGGTTTTCCCGGTAATCCGTATTTGAA (site GGTAATCCTTT)	0.0108
GGGACATCATGGACCGGTTTTCCCGGTAATCCGTATTTGCT (site AGGACATCTAG)	0
GGGACATCATGGACCGGTTTTCCCGGTAATCCGTATTTGCT (site CGGACATCTAG)	0

Sequence	recombinant UMI read abundance (log10)
GGGACATCATGGACCGGTTTTCCCGGTAATCCGTATTTGCT (site GGGACATCTAG)	1.43
GGGACATCATGGACCGGTTTTCCCGGTAATCCGTATTTGCT (site TGGACATCTAG)	0
GGGACTACATGGACCGGTTTTCCCGGTAATCCGTATTTGCA (site GGGACTACTTG)	1.67
GGGACTTCATGGACCGGTTTTCCCGGTAATCCGTATTTGTG (site GGGACTTCTCA)	0.746
GGGATCGCATGGACCGGTTTTCCCGGTAATCCGTATTTGCT (site GGGATCGCTAG)	3.09
GGGATGACATGGACCGGTTTTCCCGGTAATCCGTATTTGAG (site GGGATGACTCT)	1.86
GGGATGCCATGGACCGGTTTTCCCGGTAATCCGTATTTGGC (site GGGATGCCTGC)	0
GGGCAACCATGGACCGGTTTTCCCGGTAATCCGTATTTGCG (site GGGCAACCTCG)	0
GGGCAGACATGGACCGGTTTTCCCGGTAATCCGTATTTGCA (site AGGAAGACTTG)	0.0416
GGGCAGACATGGACCGGTTTTCCCGGTAATCCGTATTTGCA (site GGGCAGACTTG)	2.58
GGGGAACCATGGACCGGTTTTCCCGGTAATCCGTATTTGCA (site GGGGAACCTTG)	0
GGGGAACCATGGACCGGTTTTCCCGGTAATCCGTATTTGCA (site GGGGCACCTTG)	0
GGGGAACCATGGACCGGTTTTCCCGGTAATCCGTATTTGCA (site GGGGGACCTTG)	0
GGGGAACCATGGACCGGTTTTCCCGGTAATCCGTATTTGCA (site GGGGTACCTTG)	0
GGGGAATCATGGACCGGTTTTCCCGGTAATCCGTATTTGGG (site GGGGAATCTCC)	0.39
GGGGCAACATGGACCGGTTTTCCCGGTAATCCGTATTTGTC (site GGGGCAACTGA)	1.94
GGGGTAACATGGACCGGTTTTCCCGGTAATCCGTATTTGGG (site GGGGTAACTCC)	0.597
GGGGTTGCATGGACCGGTTTTCCCGGTAATCCGTATTTGCG (site GGGGTTGCTCG)	1.75
GGGTACACATGGACCGGTTTTCCCGGTAATCCGTATTTGGC (site GGGTACACTGC)	3.08
GGGTCGGCATGGACCGGTTTTCCCGGTAATCCGTATTTGGC (site GGGTCGGCTGC)	2.18
GGGTGTTCATGGACCGGTTTTCCCGGTAATCCGTATTTGTT (site GGGTGTTCTAA)	1.1
GGGTTGACATGGACCGGTTTTCCCGGTAATCCGTATTTGAA (site GGGTTGACTTT)	0.979
GGTAAGTCATGGACCGGTTTTCCCGGTAATCCGTATTTGTT (site GGTAAGTCTAA)	1.98
GGTAAGTCATGGACCGGTTTTCCCGGTAATCCGTATTTGTT (site GGTACGTCTAA)	0.00407
GGTAAGTCATGGACCGGTTTTCCCGGTAATCCGTATTTGTT (site GGTAGGTCTAA)	0.00944
